Results reported in PubChem BioAssay (NCI).
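Cells were grown in 96-well plates and exposed to each compound for 48 hours at five concentrations; endpoints were interpolated linearly between bracketing concentrations, or set to the highest concentration if not reached. At the GI50, growth is halved. TGI: concentration producing complete growth inhibition.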

Columns and labels:
Experiment in all cases: DTP human tumour cell line panel, 48 h
786-0 renal = system: 786-0 renal
A498 renal = system: A498 renal
A549 NSCLC = system: A549 NSCLC
ACHN renal = system: ACHN renal
CAKI-1 renal = system: CAKI-1 renal
CCRF-CEM leukemia = system: CCRF-CEM leukemia
COLO 205 colon = system: COLO 205 colon
DU-145 prostate = system: DU-145 prostate
HCT-116 colon = system: HCT-116 colon
HCT-15 colon = system: HCT-15 colon
HL-60(TB) leukemia = system: HL-60(TB) leukemia
HOP-62 NSCLC = system: HOP-62 NSCLC
HOP-92 NSCLC = system: HOP-92 NSCLC
HT29 colon = system: HT29 colon
K-562 leukemia = system: K-562 leukemia
KM12 colon = system: KM12 colon
M14 melanoma = system: M14 melanoma
MALME-3M melanoma = system: MALME-3M melanoma
MCF7 breast = system: MCF7 breast
MDA-MB-231 breast = system: MDA-MB-231 breast
MOLT-4 leukemia = system: MOLT-4 leukemia
NCI-H226 lung = system: NCI-H226 lung
NCI-H23 lung = system: NCI-H23 lung
NCI-H460 lung = system: NCI-H460 lung
NCI-H522 lung = system: NCI-H522 lung
NCI/ADR-RES ovarian = system: NCI/ADR-RES ovarian
OVCAR-3 ovarian = system: OVCAR-3 ovarian
OVCAR-5 ovarian = system: OVCAR-5 ovarian
OVCAR-8 ovarian = system: OVCAR-8 ovarian
PC-3 prostate = system: PC-3 prostate
RPMI-8226 leukemia = system: RPMI-8226 leukemia
RXF 393 renal = system: RXF 393 renal
SF-268 CNS = system: SF-268 CNS
SF-295 CNS = system: SF-295 CNS
SF-539 CNS = system: SF-539 CNS
SK-MEL-2 melanoma = system: SK-MEL-2 melanoma
SK-MEL-28 melanoma = system: SK-MEL-28 melanoma
SK-MEL-5 melanoma = system: SK-MEL-5 melanoma
SK-OV-3 ovarian = system: SK-OV-3 ovarian
SN12C renal = system: SN12C renal
SNB-75 CNS = system: SNB-75 CNS
SR leukemia = system: SR leukemia
SW-620 colon = system: SW-620 colon
T-47D breast = system: T-47D breast
TK-10 renal = system: TK-10 renal
UACC-257 melanoma = system: UACC-257 melanoma
UO-31 renal = system: UO-31 renal
BT-549 breast = system: BT-549 breast
EKVX NSCLC = system: EKVX NSCLC
HCC-2998 colon = system: HCC-2998 colon
HS 578T breast = system: HS 578T breast
LOX IMVI melanoma = system: LOX IMVI melanoma
SNB-19 CNS = system: SNB-19 CNS
U251 CNS = system: U251 CNS
UACC-62 melanoma = system: UACC-62 melanoma

## NCC(=O)Nc1ccc(-n2nc(C(F)(F)F)cc2-c2ccc3c(ccc4ccccc43)c2)cc1
786-0 renal
  GI50: 1470 nM
  TGI: 3.06 µM
A498 renal
  GI50: 1860 nM
  TGI: 3.84 µM
A549 NSCLC
  GI50: 959 nM
  TGI: 2410 nM
ACHN renal
  GI50: 1230 nM
  TGI: 2540 nM
CAKI-1 renal
  GI50: 1170 nM
  TGI: 2.66 µM
CCRF-CEM leukemia
  GI50: 746 nM
  TGI: 4.16 µM
COLO 205 colon
  GI50: 1360 nM
  TGI: 2890 nM
DU-145 prostate
  GI50: 1320 nM
  TGI: 2.62 µM
HCT-116 colon
  GI50: 761 nM
  TGI: 2000 nM
HCT-15 colon
  GI50: 142 nM
  TGI: 1710 nM
HL-60(TB) leukemia
  GI50: 1300 nM
  TGI: 3.42 µM
HOP-62 NSCLC
  GI50: 1320 nM
  TGI: 2.74 µM
HOP-92 NSCLC
  GI50: 1270 nM
  TGI: 2.65 µM
HT29 colon
  GI50: 937 nM
  TGI: 2270 nM
K-562 leukemia
  GI50: 472 nM
  TGI: 3.38 µM
KM12 colon
  GI50: 922 nM
  TGI: 2180 nM
M14 melanoma
  GI50: 1610 nM
  TGI: 3.24 µM
MALME-3M melanoma
  GI50: 1830 nM
  TGI: 3.51 µM
MCF7 breast
  GI50: 578 nM
  TGI: 2060 nM
MDA-MB-231 breast
  GI50: 1350 nM
  TGI: 2870 nM
MOLT-4 leukemia
  GI50: 809 nM
  TGI: 4.01 µM
NCI-H226 lung
  GI50: 2150 nM
  TGI: 6.35 µM
NCI-H23 lung
  GI50: 1780 nM
  TGI: 3.75 µM
NCI-H460 lung
  GI50: 307 nM
  TGI: 1740 nM
NCI-H522 lung
  GI50: 1320 nM
  TGI: 2.71 µM
NCI/ADR-RES ovarian
  GI50: 1120 nM
  TGI: 3.12 µM
OVCAR-3 ovarian
  GI50: 1340 nM
  TGI: 2.65 µM
OVCAR-5 ovarian
  GI50: 1560 nM
  TGI: 2.95 µM
OVCAR-8 ovarian
  GI50: 929 nM
  TGI: 3.15 µM
PC-3 prostate
  GI50: 1240 nM
  TGI: 2.66 µM
RPMI-8226 leukemia
  GI50: 1290 nM
  TGI: 4.08 µM
RXF 393 renal
  GI50: 1380 nM
  TGI: 2750 nM
SF-268 CNS
  GI50: 1130 nM
  TGI: 2.75 µM
SF-295 CNS
  GI50: 1160 nM
  TGI: 2.6 µM
SF-539 CNS
  GI50: 1060 nM
  TGI: 2410 nM
SK-MEL-2 melanoma
  GI50: 1820 nM
  TGI: 3.48 µM
SK-MEL-28 melanoma
  GI50: 1450 nM
  TGI: 2.81 µM
SK-MEL-5 melanoma
  GI50: 1250 nM
  TGI: 2560 nM
SK-OV-3 ovarian
  GI50: 1270 nM
  TGI: 2540 nM
SN12C renal
  GI50: 1650 nM
  TGI: 3.4 µM
SNB-75 CNS
  GI50: 1260 nM
  TGI: 2.79 µM
SR leukemia
  GI50: 342 nM
  TGI: 2350 nM
SW-620 colon
  GI50: 835 nM
  TGI: 2160 nM
T-47D breast
  GI50: 1620 nM
  TGI: 3 µM
TK-10 renal
  GI50: 1490 nM
  TGI: 2.87 µM
UACC-257 melanoma
  GI50: 1660 nM
  TGI: 3.31 µM
UO-31 renal
  GI50: 1320 nM
  TGI: 2.61 µM

## CCCCN(CCCC)c1cc(C(=O)CCCCCN)c2ccccc2n1
786-0 renal
  GI50: 1830 nM
  TGI: 3.27 µM
A498 renal
  GI50: 2850 nM
  TGI: 19.2 µM
A549 NSCLC
  GI50: 1780 nM
  TGI: 3380 nM
ACHN renal
  GI50: 1760 nM
  TGI: 3140 nM
BT-549 breast
  GI50: 8.57 µM
  TGI: 23.4 µM
CAKI-1 renal
  GI50: 1860 nM
  TGI: 4.38 µM
CCRF-CEM leukemia
  GI50: 3200 nM
  TGI: 7.32 µM
DU-145 prostate
  GI50: 1890 nM
  TGI: 3.41 µM
EKVX NSCLC
  GI50: 4.99 µM
  TGI: 23.1 µM
HCC-2998 colon
  GI50: 1760 nM
  TGI: 3.21 µM
HCT-116 colon
  GI50: 1780 nM
  TGI: 3160 nM
HOP-62 NSCLC
  GI50: 1760 nM
  TGI: 3.53 µM
HOP-92 NSCLC
  GI50: 2510 nM
  TGI: 6.32 µM
HS 578T breast
  GI50: 2130 nM
  TGI: 6.05 µM
HT29 colon
  GI50: 2000 nM
  TGI: 3570 nM
K-562 leukemia
  GI50: 2470 nM
  TGI: 5 µM
LOX IMVI melanoma
  GI50: 1690 nM
  TGI: 3.13 µM
M14 melanoma
  GI50: 1830 nM
  TGI: 3.29 µM
MALME-3M melanoma
  GI50: 2160 nM
  TGI: 4.16 µM
MDA-MB-231 breast
  GI50: 1620 nM
  TGI: 3090 nM
MOLT-4 leukemia
  GI50: 2540 nM
  TGI: 5.47 µM
NCI-H23 lung
  GI50: 1890 nM
  TGI: 3.8 µM
NCI-H522 lung
  GI50: 1910 nM
  TGI: 3.52 µM
NCI/ADR-RES ovarian
  GI50: 1780 nM
  TGI: 3.61 µM
OVCAR-3 ovarian
  GI50: 2020 nM
  TGI: 3.79 µM
OVCAR-5 ovarian
  GI50: 1850 nM
  TGI: 3.65 µM
OVCAR-8 ovarian
  GI50: 2030 nM
  TGI: 4.61 µM
PC-3 prostate
  GI50: 2560 nM
  TGI: 6.07 µM
RPMI-8226 leukemia
  GI50: 2950 nM
  TGI: 6.53 µM
RXF 393 renal
  GI50: 1530 nM
  TGI: 2890 nM
SF-268 CNS
  GI50: 3380 nM
  TGI: 12.7 µM
SF-295 CNS
  GI50: 1860 nM
  TGI: 3.85 µM
SF-539 CNS
  GI50: 1950 nM
  TGI: 3410 nM
SK-MEL-2 melanoma
  GI50: 2560 nM
  TGI: 4.45 µM
SK-MEL-28 melanoma
  GI50: 1910 nM
  TGI: 3.37 µM
SK-MEL-5 melanoma
  GI50: 1580 nM
  TGI: 2920 nM
SK-OV-3 ovarian
  GI50: 1760 nM
  TGI: 3160 nM
SN12C renal
  GI50: 1630 nM
  TGI: 3.07 µM
SNB-19 CNS
  GI50: 1650 nM
  TGI: 3.12 µM
SNB-75 CNS
  GI50: 1710 nM
  TGI: 3.21 µM
TK-10 renal
  GI50: 1940 nM
  TGI: 3.5 µM
U251 CNS
  GI50: 1770 nM
  TGI: 3.23 µM
UACC-257 melanoma
  GI50: 1760 nM
  TGI: 3.5 µM
UACC-62 melanoma
  GI50: 1660 nM
  TGI: 3.07 µM
UO-31 renal
  GI50: 1850 nM
  TGI: 3.68 µM
